Assay results published in patent publication US20080234132A1, “Microcin B17 Analogs And Methods For Their Preparation And Use” (priority 2004, published 2008).

Tests used:
E. coli [1] = assay: In vivo E. coli (Table 5-C summary of haloassays); assay type: cell-based; details: number = not active up to this concentration
Protocol: Lawns of cells were prepared by spreading, on top of a LB+Agar plate, 3 ml of melted LSS medium (half-agar strength: 0.3 g Agar/50 ml LB) inoculated with 100 μl of a 10 ml LB overnight culture of E. coli cells grown at 37° C. […] The plates were incubated at 37° C. overnight and growth inhibition was qualitatively analysed by measuring the diameter of each halo.

Human topoisomerase I = molecular target: T1, Human topoisomerase I (Homo sapiens, UniProt P11387); assay: Human topoisomerase I-mediated relaxation assay; assay type: biochemical; details: read-out: Topo I Human IC50
T1 construct: purchased TopoGEN Inc. (Port Orange, Fla., USA)
T1 sequence (P11387 1-765): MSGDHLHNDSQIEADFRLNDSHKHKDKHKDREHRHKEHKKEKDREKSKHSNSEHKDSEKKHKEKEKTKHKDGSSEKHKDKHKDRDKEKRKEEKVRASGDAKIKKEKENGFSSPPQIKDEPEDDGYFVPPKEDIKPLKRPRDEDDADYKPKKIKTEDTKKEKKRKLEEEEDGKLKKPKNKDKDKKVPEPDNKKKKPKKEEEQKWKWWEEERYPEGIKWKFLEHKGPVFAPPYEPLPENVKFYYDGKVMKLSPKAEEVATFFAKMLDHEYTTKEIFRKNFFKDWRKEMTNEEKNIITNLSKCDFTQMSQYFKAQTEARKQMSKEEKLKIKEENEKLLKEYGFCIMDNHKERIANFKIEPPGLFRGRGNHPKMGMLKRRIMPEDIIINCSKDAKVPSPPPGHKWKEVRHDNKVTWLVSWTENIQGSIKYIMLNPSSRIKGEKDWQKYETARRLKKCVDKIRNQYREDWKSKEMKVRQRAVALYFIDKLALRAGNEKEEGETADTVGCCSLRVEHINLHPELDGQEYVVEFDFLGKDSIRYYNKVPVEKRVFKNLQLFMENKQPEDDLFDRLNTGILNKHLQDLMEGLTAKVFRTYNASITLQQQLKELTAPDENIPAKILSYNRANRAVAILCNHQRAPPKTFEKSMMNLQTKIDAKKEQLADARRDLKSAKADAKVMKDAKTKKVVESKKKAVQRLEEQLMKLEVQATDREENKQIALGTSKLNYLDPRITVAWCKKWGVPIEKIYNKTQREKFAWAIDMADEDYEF
Protocol: Human topoisomerase I-mediated relaxation assays were performed as per the manufacturer's instructions. Topoisomerase I (2 nM) was added to reactions containing 10 mM of Tris.HCl, pH 7.9, 150 mM NaCl, 100 μM spermidine.HCl, 5% glycerol, 0.1% BSA, 4.6 nM of […] pBR322 DNA, and inhibitor where appropriate.
(§1) All in vitro reactions were incubated at 37° C. for 30 minutes. The DMSO concentration in each reaction was kept constant at 3.33%. Reactions were quenched with the addition of an equal volume of phenol/chloroform/isoamyl alcohol (25:24:1) and one tenth volume of loading buffer containing 40% sucrose, 100 mM Tris.HCl pH 7.5, 100 mM EDTA, 2 mg/mL bromophenol blue. The proteins were precipitated by vortexing, followed by centrifugation for 5 minutes at 16 000 g. The aqueous phase was loaded onto 1% agarose gels in Tris-acetate and were electrophoresed at 60 V for three hours in Tris-acetate buffer. The gels were stained in 1 μg/mL ethidium bromide. The gels were visualised using UV light and were documented and analysed using Syngene software.

HeLa cells = assay: MTT cell viability assay, HeLa; assay type: cell-based, human; details: cell reads on: Active
Protocol: Human cell cultures were initiated from frozen cell stocks (the gift of Dr J. Gavrilovic, UEA). […] Both human cell lines form adherent cultures and were maintained at 37° C. in T25 culture vessels as 10 mL cultures in CO2 Independent Media containing 10% foetal bovine serum (EU approved), 4 mM L-glutamine, penicillin/streptomycin (Invitrogen). […] Media was renewed every three days.
After incubation with MTT and solubilization, the resulting coloured solution is quantified using a scanning spectrophotometer. […] Cell viability was then determined by addition of MTT reagent (20 μL) in each well, as per manufacturer's instructions and incubated for a further 4 hours. Solubilization solution (100 μL) was added per well and the plates incubated overnight at 37° C. The plates were read in a spectrophotometer (scanning from 500-650 nm, signal peak at 570 nm).

E. coli [2] = assay: In vivo E. coli activity (Table 5-C); assay type: cell-based; details: cell reads on: Active
Protocol: In vivo activity was tested using the bioassay developed by Sinha Roy, 1999, with some modifications. The Microcin-sensitive E. coli DH5α was used as the indicator strain. Lawns of cells were prepared by spreading 100 μL of a 10 mL LB culture grown at 37° C. overnight mixed with 3 mL of LSS, on LB+agar (10 g/L) plates. […] The plates were incubated at 37° C. overnight and halos of growth inhibition were qualitatively analyzed by determining their diameters (see FIG. 9).
Lawns of cells were prepared by spreading, on top of a LB+Agar plate, 3 ml of melted LSS medium (half-agar strength: 0.3 g Agar/50 ml LB) inoculated with 100 μl of a 10 ml LB overnight culture of E. coli cells grown at 37° C. Halo assays with MccB17 generally used a DH5α strain (Novagen) but the inventors used the standard E. coli strain (K12) because it is from this strain that the microcin B17-resistant mutant W751R was obtained. […] The plates were incubated at 37° C. overnight and growth inhibition was qualitatively analysed by measuring the diameter of each halo.
Haloassays were performed as described above.

E. coli Topoisomerase IV [3] = molecular target: T2, E. coli Topoisomerase IV (Escherichia coli, UniProt P0AFI2+P20083); assay: Topoisomerase IV-mediated decatenation assay; assay type: biochemical; set-up: purchased John Innes Enterprises
Protocol: Topoisomerase IV-mediated relaxation assays and decatenation assays were performed as previously described (see Peng and Marians, 1993). Relaxation assays contained topoisomerase IV (20 nM), 40 mM Tris.HCl pH 7.5 at 30° C., 6 mM MgCl2, 10 mM DTT, 1 mM spermidine.HCl, 20 mM KCl, 1 mM ATP, 0.5 mg/mL BSA, 4.6 nM of supercoiled pBR322 DNA and inhibitor where appropriate. Decatenation assays contained topoisomerase IV (4 nM), 40 mM Tris HCl pH 7.5 at 30° C., 6 mM MgCl2, 10 mM DTT, 1 mM spermidine.HCl, 100 mM potassium glutamate, 0.5 mM ATP, 0.5 mg/mL BSA, 200 ng of kinetoplast DNA, and inhibitor where appropriate.
as §1

E. coli Topoisomerase IV [4] = molecular target: T2, E. coli Topoisomerase IV; assay: biochemical; assay type: biochemical; set-up: purchased John Innes Enterprises (Norwich, UK)
Protocol: Topoisomerase IV-mediated relaxation assays and decatenation assays were performed as previously described (see Peng and Marians, 1993). […] Decatenation assays contained topoisomerase IV (4 nM), 40 mM Tris HCl pH 7.5 at 30° C., 6 mM MgCl2, 10 mM DTT, 1 mM spermidine.HCl, 100 mM potassium glutamate, 0.5 mM ATP, 0.5 mg/mL BSA, 200 ng of kinetoplast DNA, and inhibitor where appropriate.

T2 sequence (P20083 whole entry): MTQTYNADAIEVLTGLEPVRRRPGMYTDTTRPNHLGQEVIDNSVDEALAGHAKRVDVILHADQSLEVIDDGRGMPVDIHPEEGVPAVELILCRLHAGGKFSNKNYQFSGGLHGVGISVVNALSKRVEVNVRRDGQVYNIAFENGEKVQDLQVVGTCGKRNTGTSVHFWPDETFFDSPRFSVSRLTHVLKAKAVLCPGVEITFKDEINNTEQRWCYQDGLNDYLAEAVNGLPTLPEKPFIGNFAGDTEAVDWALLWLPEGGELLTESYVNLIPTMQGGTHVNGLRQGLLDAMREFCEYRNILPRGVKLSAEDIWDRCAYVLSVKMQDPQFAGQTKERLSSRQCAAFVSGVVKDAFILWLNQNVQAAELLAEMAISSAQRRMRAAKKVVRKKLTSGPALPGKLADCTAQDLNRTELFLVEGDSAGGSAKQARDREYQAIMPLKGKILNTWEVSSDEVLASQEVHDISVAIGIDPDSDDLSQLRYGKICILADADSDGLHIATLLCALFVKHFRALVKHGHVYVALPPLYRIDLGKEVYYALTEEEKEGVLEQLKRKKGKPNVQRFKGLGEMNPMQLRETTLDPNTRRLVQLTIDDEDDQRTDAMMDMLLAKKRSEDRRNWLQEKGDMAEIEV
T2 sequence (P0AFI2 whole entry): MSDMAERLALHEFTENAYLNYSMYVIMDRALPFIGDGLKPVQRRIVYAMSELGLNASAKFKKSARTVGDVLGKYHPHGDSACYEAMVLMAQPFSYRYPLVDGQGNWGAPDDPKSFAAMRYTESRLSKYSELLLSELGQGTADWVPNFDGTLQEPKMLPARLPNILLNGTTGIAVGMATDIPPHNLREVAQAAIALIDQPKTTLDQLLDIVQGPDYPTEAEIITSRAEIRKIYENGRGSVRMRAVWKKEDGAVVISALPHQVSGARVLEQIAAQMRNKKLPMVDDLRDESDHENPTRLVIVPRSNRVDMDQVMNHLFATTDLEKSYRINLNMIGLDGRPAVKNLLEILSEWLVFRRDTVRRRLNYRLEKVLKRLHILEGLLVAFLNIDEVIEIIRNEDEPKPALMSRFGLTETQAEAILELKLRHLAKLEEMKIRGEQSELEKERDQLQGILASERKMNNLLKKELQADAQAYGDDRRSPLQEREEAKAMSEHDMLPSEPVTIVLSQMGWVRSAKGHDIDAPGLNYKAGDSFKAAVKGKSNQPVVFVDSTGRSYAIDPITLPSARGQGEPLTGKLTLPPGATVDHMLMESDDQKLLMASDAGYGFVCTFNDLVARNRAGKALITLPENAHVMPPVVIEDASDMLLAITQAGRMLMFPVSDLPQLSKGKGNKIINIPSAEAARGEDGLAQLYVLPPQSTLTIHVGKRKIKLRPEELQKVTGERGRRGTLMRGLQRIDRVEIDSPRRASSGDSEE

CC(C)(C)OC(=O)NCc1nc(C(=O)O)co1 [#6]
In vivo E. coli (E. coli [1]): (→400 μM) | IC50 (Human topoisomerase I): > 300 µM | In vivo HeLa Cells activity (HeLa cells): Not | In vivo E. coli activity, up to 400 μM (E. coli [2]): Not | Decatenation activity of topoisomerase IV, sensitivity (E. coli Topoisomerase IV [3]): albeit weakly | Topo IV, D (decatenation reaction) IC50 (E. coli Topoisomerase IV [4]): weakly | IC50 (E. coli Topoisomerase IV [4]; read-out: Topo IV, D (decatenation reaction) IC50): 200 µM
